This assay addresses His-tagged p53-Y220C DNA binding domain (Homo sapiens, UniProt P04637, Y220C). The experiment in a line: Biochemical p53-Y220C and DNA binding assay (HTRF). The note with it: read-out: HTRF IP. In outline: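 DBD (aa 94-312, 100 nM) mixed with compound and biotinylated consensus dsDNA (200 nM) in DPBS/20 mM NaCl/0.5% BSA, overnight at 4 °C, then 60 min at 27-29 °C; anti-His Tb/streptavidin-d2 HTRF read. Activation normalized to reference compound (500%) and DMSO (0%); 10-point curve, inflection point reported.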
For orientation: Time-resolved FRET reads energy transfer from a long-lived donor to a nearby acceptor.

The mark [1] stands for this setting: inflection point of 10 points dose titration, 4 parameter curve fit, p53-Y220C DBD 100 nM, biotinylated dsDNA 200 nM, 27 to 29° C.

The structures appear in SMILES notation. Like-named read-outs stand apart in the source and are kept apart here.

As to `OC(/C=C/c1sc2c(N[C@@H]3CNC[C@@H]3F)cccc2c1CC(F)(F)F)c1ccccn1` (stereo partly drawn) [Example 5-1, (E)-3-(7-(((3R,4S)-4-fluoropyrrolidin-3-yl)amino)-3-(2,2,2-trifluoroethyl)benzo[b]thiophen-2-yl)-1-(pyridin-2-yl)prop-2-en-1-ol], the EC50 under setting [1] was > 1 µM. Still for that read-out and setting: to `CN1CC[C@@H](Nc2cccc3c(CC(F)(F)F)c(/C=C/C(O)c4ccccn4)sc23)[C@@H](F)C1` (stereo partly drawn) [Example 5-2, (E)-3-(7-(((3S,4R)-3-fluoro-1-methylpiperidin-4-yl)amino)-3-(2,2,2-trifluoroethyl)benzo[b]thiophen-2-yl)-1-(pyridin-2-yl)prop-2-en-1-ol] belongs > 1 µM; to `OC(/C=C/c1sc2c(N[C@@H]3CNC[C@@H]3F)cccc2c1CC(F)(F)F)c1cc(Cl)n[nH]1` (stereo partly drawn) [Example 5-3, (E)-1-(3-chloro-1H-pyrazol-5-yl)-3-(7-(((3R,4S)-4-fluoropyrrolidin-3-yl)amino)-3-(2,2,2-trifluoroethyl)benzo[b]thiophen-2-yl)prop-2-en-1-ol], 0.1 to 1 µM.

`CN1CC[C@@H](Nc2cccc3c(CC(F)(F)F)c(/C=C/C(O)c4cccnc4)sc23)[C@@H](F)C1` (stereo partly drawn) [Example 5-4, (E)-3-(7-(((3S,4R)-3-fluoro-1-methylpiperidin-4-yl)amino)-3-(2,2,2-trifluoroethyl)benzo[b]thiophen-2-yl)-1-(pyridin-3-yl)prop-2-en-1-ol]: under setting [1], the EC50 was 0.1 to 1 µM. In the case of `CN1CC[C@@H](Nc2cccc3c(CC(F)(F)F)c(/C=C/C(O)c4cnn(C)c4)sc23)[C@@H](F)C1` (stereo partly drawn) [Example 5-5], the EC50 under setting [1] fell in the range of 0.1 to 1 µM. Take `CN1CC[C@@H](Nc2cccc3c(CC(F)(F)F)c(/C=C/C(O)c4cnn5ccccc45)sc23)[C@@H](F)C1` (stereo partly drawn) [Example 5-6, (E)-3-(7-(((3S,4R)-3-fluoro-1-methylpiperidin-4-yl)amino)-3-(2,2,2-trifluoroethyl)benzo[b]thiophen-2-yl)-1-(pyrazolo[1,5-a]pyridin-3-yl)prop-2-en-1-ol]: the EC50 under setting [1] was 0.1 to 1 µM. For `CN1CC[C@@H](Nc2cccc3c(CC(F)(F)F)c(/C=C/C(O)c4cnn(CC5CC5)c4)sc23)[C@@H](F)C1` (stereo partly drawn) [Example 5-7, (E)-1-(1-(cyclopropylmethyl)-1H-pyrazol-4-yl)-3-(7-(((3S,4R)-3-fluoro-1-methylpiperidin-4-yl)amino)-3-(2,2,2-trifluoroethyl)benzo[b]thiophen-2-yl)prop-2-en-1-ol], the EC50 under setting [1] was in the range of 0.1 to 1 µM. Same read-out and setting: in the case of `CN1CC[C@@H](Nc2cccc3c(CC(F)(F)F)c(/C=C/C(O)c4cn[nH]c4)sc23)[C@@H](F)C1` (stereo partly drawn) [Example 5-8, (E)-3-(7-(((3S,4R)-3-fluoro-1-methylpiperidin-4-yl)amino)-3-(2,2,2-trifluoroethyl)benzo[b]thiophen-2-yl)-1-(1H-pyrazol-4-yl)prop-2-en-1-ol] it was 0.1 to 1 µM; in that of `CN1CC[C@@H](Nc2cccc3c(CC(F)(F)F)c(/C=C/C(O)c4ccncc4)sc23)[C@@H](F)C1` (stereo partly drawn) [Example 5-9, (E)-3-(7-(((3S,4R)-3-fluoro-1-methylpiperidin-4-yl)amino)-3-(2,2,2-trifluoroethyl)benzo[b]thiophen-2-yl)-1-(pyridin-4-yl)prop-2-en-1-ol], 0.1 to 1 µM. Still for that read-out and setting: in the case of `O=c1cccc(C(O)/C=C/c2sc3c(N[C@@H]4CNC[C@@H]4F)cccc3c2CC(F)(F)F)[nH]1` (stereo partly drawn) [Example 5-10, 6-((E)-3-(7-(((3R,4S)-4-fluoropyrrolidin-3-yl)amino)-3-(2,2,2-trifluoroethyl)benzo[b]thiophen-2-yl)-1-hydroxyallyl)pyridin-2(1H)-one] it was 0.1 to 1 µM; in that of `CN1CC[C@@H](Nc2cccc3c(CC(F)(F)F)c(/C=C/CNC(=O)C4CC4)sc23)[C@@H](F)C1` [Example 6-1, N-((E)-3-(7-(((3S,4R)-3-fluoro-1-methylpiperidin-4-yl)amino)-3-(2,2,2-trifluoroethyl)benzo[b]thiophen-2-yl)allyl)cyclopropanecarboxamide], 0.1 to 1 µM; in that of `CN1CC[C@@H](Nc2cccc3c(CC(F)(F)F)c(/C=C/CNC(=O)c4cnn(C)c4)sc23)[C@@H](F)C1` [Example 6-2, N-((E)-3-(7-(((3S,4R)-3-fluoro-1-methylpiperidin-4-yl)amino)-3-(2,2,2-trifluoroethyl)benzo[b]thiophen-2-yl)allyl)-1-methyl-1H-pyrazole-4-carboxamide], 0.1 to 1 µM.

As for `CN1CC[C@@H](Nc2cccc3c(CC(F)(F)F)c(/C=C/CNS(C)(=O)=O)sc23)[C@@H](F)C1` [Example 6-3, N-((E)-3-(7-(((3S,4R)-3-fluoro-1-methylpiperidin-4-yl)amino)-3-(2,2,2-trifluoroethyl)benzo[b]thiophen-2-yl)allyl)methanesulfonamide], the EC50 under setting [1] lay within 0.1 to 1 µM. As for `COC(=O)NC/C=C/c1sc2c(N[C@@H]3CCN(C)C[C@@H]3F)cccc2c1CC(F)(F)F` [Example 6-4, methyl ((E)-3-(7-(((3S,4R)-3-fluoro-1-methylpiperidin-4 yl)amino)-3-(2,2,2-trifluoroethyl)benzo[b]thiophen-2-yl)allyl)carbamate], the EC50 under setting [1] is 0.1 to 1 µM. Consider `CN1CC[C@@H](Nc2cccc3c(CC(F)(F)F)c(/C=C/CNc4cccnc4)sc23)[C@@H](F)C1` [Example 7-1, N-((E)-3-(7-(((3S,4R)-3-fluoro-1-methylpiperidin-4-yl)amino)-3-(2,2,2-trifluoroethyl)benzo[b]thiophen-2-yl)allyl)pyridin-3-amine], for which the EC50 under setting [1] is 0.1 to 1 µM.

Take `COc1cc(S(C)(=O)=O)ccc1NC/C=C/c1sc2c(N[C@@H]3CCN(C)C[C@@H]3F)cccc2c1CC(F)(F)F` [Example 7-2, (3S,4R)-3-fluoro-N-(2-((E)-3-((2-methoxy-4-(methylsulfonyl)phenyl)amino)prop-1-en-1-yl)-3-(2,2,2-trifluoroethyl)benzo[b]thiophen-7-yl)-1-methylpiperidin-4-amine]: the EC50 under setting [1] is < 0.1 µM. As for `CN1CC[C@@H](Nc2cccc3c2cc(-c2noc(CNC(=O)c4cnn(C(C)(C)C)c4)n2)n3CC(F)(F)F)[C@@H](F)C1` [Reference Compound 1, reference compound], the EC50 by setting is: (bound printed in the heading for the reference compound) < 0.1 µM; under setting [1], < 0.1 µM.

These data come from patent US20250120961A1, “P53 MODULATORS” (Nested Therapeutics, Inc., priority 2023, published 2025).
